Measured values reported in PubChem BioAssay AID2060618 (Molecular Pharmacology Branch, DTP, NCI, 2025).
One block for each molecule: values may come before it.

Tested on: 454973-116-R2-J3-PDC spheroids, percent test/control viability
Test: Anticancer human tumor 454973-116-R2-J3-PDC patient-derived pancreatic carcinoma cell line growth inhibition [CLK]
Settings: spheroids with HUVEC and MSC; for IC50: curve of first compound; for viability, T/C: stronger effect = lower value
How it was run: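 Patient-derived tumor cells grown as complex spheroids with HUVEC endothelial cells and mesenchymal stem cells, treated with drug combinations. Concentrations descend in half-log steps from near clinical Cmax, or from 10 microM if Cmax unknown.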

[1] = second compound 0.0316 µM, first compound 0.00316 µM
[2] = second compound 0.0316 µM, first compound 0.01 µM
[3] = second compound 0.0316 µM, first compound 0.0316 µM
[4] = second compound 0.0316 µM, first compound 0.1 µM
[5] = second compound 0.0316 µM, first compound 0.316 µM
[6] = second compound 0.0316 µM, first compound 1 µM
[7] = second compound 0.1 µM, first compound 0.00316 µM
[8] = second compound 0.1 µM, first compound 0.01 µM
[9] = second compound 0.1 µM, first compound 0.0316 µM
[10] = second compound 0.1 µM, first compound 0.1 µM
[11] = second compound 0.1 µM, first compound 0.316 µM
[12] = second compound 0.1 µM, first compound 1 µM
[13] = second compound 0.316 µM, first compound 0.00316 µM
[14] = second compound 0.316 µM, first compound 0.01 µM
[15] = second compound 0.316 µM, first compound 0.0316 µM
[16] = second compound 0.316 µM, first compound 0.1 µM
[17] = second compound 0.316 µM, first compound 0.316 µM
[18] = second compound 0.316 µM, first compound 1 µM
[19] = second compound 1 µM, first compound 0.00316 µM
[20] = second compound 1 µM, first compound 0.01 µM
[21] = second compound 1 µM, first compound 0.0316 µM
[22] = second compound 1 µM, first compound 0.1 µM
[23] = second compound 1 µM, first compound 0.316 µM
[24] = second compound 1 µM, first compound 1 µM
[25] = second compound 3.16 µM, first compound 0.00316 µM
[26] = second compound 3.16 µM, first compound 0.01 µM
[27] = second compound 3.16 µM, first compound 0.0316 µM
[28] = second compound 3.16 µM, first compound 0.1 µM
[29] = second compound 3.16 µM, first compound 0.316 µM
[30] = second compound 3.16 µM, first compound 1 µM
[31] = second compound 10 µM, first compound 0.00316 µM
[32] = second compound 10 µM, first compound 0.01 µM
[33] = second compound 10 µM, first compound 0.0316 µM
[34] = second compound 10 µM, first compound 0.1 µM
[35] = second compound 10 µM, first compound 0.316 µM
[36] = second compound 10 µM, first compound 1 µM
[37] = second compound 0.0316 µM, first compound 3.16 µM
[38] = second compound 0.0316 µM, first compound 10 µM
[39] = second compound 0.1 µM, first compound 3.16 µM
[40] = second compound 0.1 µM, first compound 10 µM
[41] = second compound 0.316 µM, first compound 3.16 µM
[42] = second compound 0.316 µM, first compound 10 µM
[43] = second compound 1 µM, first compound 3.16 µM
[44] = second compound 1 µM, first compound 10 µM
[45] = second compound 3.16 µM, first compound 3.16 µM
[46] = second compound 3.16 µM, first compound 10 µM
[47] = second compound 10 µM, first compound 3.16 µM
[48] = second compound 10 µM, first compound 10 µM
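Note: spheroids exposed to compounds for 7 days before readout.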

IC50 (second compound 0.0316 µM): < 3.16 nM | IC50 (second compound 0.1 µM): < 3.16 nM | IC50 (second compound 0.316 µM): < 3.16 nM | IC50 (second compound 1 µM): < 3.16 nM | IC50 (second compound 3.16 µM): < 3.16 nM | IC50 (second compound 10 µM): < 3.16 nM
SMILES: CCc1c2c(nc3ccc(O)cc13)-c1cc3c(c(=O)n1C2)COC(=O)[C@]3(O)CC + CNC(=O)c1ccc(Nc2nc(OC3CCCC3)c3c(-c4ccc5nc(C)oc5c4)c[nH]c3n2)c(OC)c1
viability, T/C [1]: 27.4% | viability, T/C [2]: 16.7% | viability, T/C [3]: 12.8% | viability, T/C [4]: 5.45% | viability, T/C [5]: 4.91% | viability, T/C [6]: 1.19% | viability, T/C [7]: 21.7% | viability, T/C [8]: 18.1% | viability, T/C [9]: 13.6% | viability, T/C [10]: 9.68% | viability, T/C [11]: 3.81% | viability, T/C [12]: 1.47% | viability, T/C [13]: 20.4% | viability, T/C [14]: 17.1% | viability, T/C [15]: 10.5% | viability, T/C [16]: 6.75% | viability, T/C [17]: 2.62% | viability, T/C [18]: 1.9% | viability, T/C [19]: 24% | viability, T/C [20]: 17.2% | viability, T/C [21]: 6.96% | viability, T/C [22]: 2.96% | viability, T/C [23]: 2.33% | viability, T/C [24]: 1.14% | viability, T/C [25]: 24.5% | viability, T/C [26]: 16.7% | viability, T/C [27]: 7.28% | viability, T/C [28]: 4.75% | viability, T/C [29]: 2.45% | viability, T/C [30]: 0.84% | viability, T/C [31]: 22.6% | viability, T/C [32]: 15.3% | viability, T/C [33]: 4.85% | viability, T/C [34]: 5.04% | viability, T/C [35]: 3.11% | viability, T/C [36]: 0.6%

IC50 (second compound 0.0316 µM): > 100 nM | IC50 (second compound 0.1 µM): > 100 nM | IC50 (second compound 0.316 µM): < 0.316 nM | IC50 (second compound 1 µM): < 0.316 nM | IC50 (second compound 3.16 µM): < 0.316 nM | IC50 (second compound 10 µM): < 0.316 nM
SMILES: Cn1ncnc1[C@H]1c2n[nH]c(=O)c3cc(F)cc(c23)N[C@@H]1c1ccc(F)cc1 + CNC(=O)c1ccc(Nc2nc(OC3CCCC3)c3c(-c4ccc5nc(C)oc5c4)c[nH]c3n2)c(OC)c1
viability, T/C (second compound 0.0316 µM, first compound 0.000316 µM): 110% | viability, T/C (second compound 0.0316 µM, first compound 0.001 µM): 114% | viability, T/C [1]: 110% | viability, T/C [2]: 119% | viability, T/C [3]: 105% | viability, T/C [4]: 86.2% | viability, T/C (second compound 0.1 µM, first compound 0.000316 µM): 113% | viability, T/C (second compound 0.1 µM, first compound 0.001 µM): 104% | viability, T/C [7]: 104% | viability, T/C [8]: 106% | viability, T/C [9]: 104% | viability, T/C [10]: 86.4% | viability, T/C (second compound 0.316 µM, first compound 0.000316 µM): 43.1% | viability, T/C (second compound 0.316 µM, first compound 0.001 µM): 51.2% | viability, T/C [13]: 50.8% | viability, T/C [14]: 52.2% | viability, T/C [15]: 52.2% | viability, T/C [16]: 48.1% | viability, T/C (second compound 1 µM, first compound 0.000316 µM): 33.1% | viability, T/C (second compound 1 µM, first compound 0.001 µM): 31.5% | viability, T/C [19]: 27.8% | viability, T/C [20]: 36.4% | viability, T/C [21]: 31.1% | viability, T/C [22]: 23.5% | viability, T/C (second compound 3.16 µM, first compound 0.000316 µM): 29.2% | viability, T/C (second compound 3.16 µM, first compound 0.001 µM): 26.7% | viability, T/C [25]: 29% | viability, T/C [26]: 25.7% | viability, T/C [27]: 23.9% | viability, T/C [28]: 21.4% | viability, T/C (second compound 10 µM, first compound 0.000316 µM): 25.5% | viability, T/C (second compound 10 µM, first compound 0.001 µM): 27.6% | viability, T/C [31]: 25.8% | viability, T/C [32]: 21.7% | viability, T/C [33]: 24.5% | viability, T/C [34]: 19.6%

IC50 (second compound 0.0316 µM): < 31.6 nM | IC50 (second compound 0.1 µM): < 31.6 nM | IC50 (second compound 0.316 µM): < 31.6 nM | IC50 (second compound 1 µM): < 31.6 nM | IC50 (second compound 3.16 µM): < 31.6 nM | IC50 (second compound 10 µM): < 31.6 nM
SMILES: Nc1ccn(C2OC(CO)C(O)C2(F)F)c(=O)n1 (stereo not drawn) + CNC(=O)c1ccc(Nc2nc(OC3CCCC3)c3c(-c4ccc5nc(C)oc5c4)c[nH]c3n2)c(OC)c1
viability, T/C [3]: 10.8% | viability, T/C [4]: 9.2% | viability, T/C [5]: 11.1% | viability, T/C [6]: 7.75% | viability, T/C [37]: 7.61% | viability, T/C [38]: 8.18% | viability, T/C [9]: 9.97% | viability, T/C [10]: 8.66% | viability, T/C [11]: 10.6% | viability, T/C [12]: 9.85% | viability, T/C [39]: 11.6% | viability, T/C [40]: 10.8% | viability, T/C [15]: 11.5% | viability, T/C [16]: 10.7% | viability, T/C [17]: 11.8% | viability, T/C [18]: 10.4% | viability, T/C [41]: 10.3% | viability, T/C [42]: 8.88% | viability, T/C [21]: 11.7% | viability, T/C [22]: 6.57% | viability, T/C [23]: 7.9% | viability, T/C [24]: 9.2% | viability, T/C [43]: 7.06% | viability, T/C [44]: 8.15% | viability, T/C [27]: 11.8% | viability, T/C [28]: 6.57% | viability, T/C [29]: 7.14% | viability, T/C [30]: 9.4% | viability, T/C [45]: 7.28% | viability, T/C [46]: 7.11% | viability, T/C [33]: 13% | viability, T/C [34]: 8.08% | viability, T/C [35]: 4.66% | viability, T/C [36]: 6.23% | viability, T/C [47]: 9.5% | viability, T/C [48]: 8.08%

IC50 (second compound 0.0316 µM): 1650 nM | IC50 (second compound 0.1 µM): 2020 nM | IC50 (second compound 0.316 µM): 41.2 nM | IC50 (second compound 1 µM): < 31.6 nM | IC50 (second compound 3.16 µM): < 31.6 nM | IC50 (second compound 10 µM): < 31.6 nM
SMILES: O=c1[nH]cc(F)c(=O)[nH]1 + CNC(=O)c1ccc(Nc2nc(OC3CCCC3)c3c(-c4ccc5nc(C)oc5c4)c[nH]c3n2)c(OC)c1
viability, T/C [3]: 94.7% | viability, T/C [4]: 107% | viability, T/C [5]: 88.5% | viability, T/C [6]: 61.7% | viability, T/C [37]: 32.6% | viability, T/C [38]: 38.4% | viability, T/C [9]: 100% | viability, T/C [10]: 113% | viability, T/C [11]: 106% | viability, T/C [12]: 75.8% | viability, T/C [39]: 33.6% | viability, T/C [40]: 32.1% | viability, T/C [15]: 49.4% | viability, T/C [16]: 49.3% | viability, T/C [17]: 42.5% | viability, T/C [18]: 37.5% | viability, T/C [41]: 28.4% | viability, T/C [42]: 25.3% | viability, T/C [21]: 32.9% | viability, T/C [22]: 28.1% | viability, T/C [23]: 21.6% | viability, T/C [24]: 20.6% | viability, T/C [43]: 16.2% | viability, T/C [44]: 19.6% | viability, T/C [27]: 29.8% | viability, T/C [28]: 33% | viability, T/C [29]: 24.5% | viability, T/C [30]: 19.1% | viability, T/C [45]: 16.4% | viability, T/C [46]: 18.9% | viability, T/C [33]: 25.1% | viability, T/C [34]: 25.3% | viability, T/C [35]: 19.7% | viability, T/C [36]: 19.3% | viability, T/C [47]: 17.2% | viability, T/C [48]: 14.2%
